{"source": "patent US6777422B2", "about": "“Substituted tetrahydroisoquinolines as C5a receptor modulators” (Neurogen Corp., priority 2002, dated 2004)"}
{"molecular_target": "T1, human C5a receptor (Homo sapiens, UniProt P21730)", "T1 construct": "endogenous in cells; host or cells: U937 cells differentiated with 1 mM dibutyryl cAMP", "T1 sequence (P21730 1-350)": "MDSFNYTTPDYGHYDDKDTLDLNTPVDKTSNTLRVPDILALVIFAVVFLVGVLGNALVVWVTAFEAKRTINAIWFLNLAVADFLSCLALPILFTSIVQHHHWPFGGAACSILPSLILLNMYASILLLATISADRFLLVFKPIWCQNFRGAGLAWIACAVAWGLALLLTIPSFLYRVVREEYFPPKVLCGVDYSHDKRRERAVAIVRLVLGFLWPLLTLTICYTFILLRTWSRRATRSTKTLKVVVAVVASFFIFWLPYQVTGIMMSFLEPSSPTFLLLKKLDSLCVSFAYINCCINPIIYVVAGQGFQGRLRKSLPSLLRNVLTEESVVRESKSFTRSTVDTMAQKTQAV", "experiment": "C5a receptor mediated calcium mobilization assay (Example 20)", "assay_type": "cell-based", "details": "differentiated U937 cells, unit inferred, read-out: Ca2+ (numeric value, C5a receptor mediated calcium mobilization)", "summary_of_the_method": "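Differentiated U937 cells (dibutyryl cAMP, 48 h) loaded with Fluo-3 were pre-incubated 1 h with compound at 1 μM, then challenged with 0.3 nM (final) human recombinant C5a. Calcium response monitored by FLIPR fluorescence (Ex 480/Em 530 nm); antagonism defined as ≥2-fold decrease versus C5a alone.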", "units": {"Ki": "nM"}}
{"smiles": "CN(CC(=O)N(Cc1ccccc1F)C1Cc2ccccc2C1)C(c1ccccc1)c1ccccc1", "note": "[Compound 133, 2-(Benzhydryl-methyl-amino)-N-(2-fluoro-benzyl)-N-indan-2-yl-acetamide]", "Ki": 465}
{"smiles": "CC1=C(C)C(c2ccccc2)N(CC(=O)N(Cc2ccccc2F)C2Cc3ccccc3C2)CC1", "note": "(stereo not shown) [Compound 134, 2-(4,5-Dimethyl-6-phenyl-3,6-dihydro-2H-pyridin-1-yl)-N-(2-fluoro-benzyl)-N-indan-2-yl-acetamide]", "Ki": 575}
{"smiles": "CC1=C(C)C(c2ccccc2C)N(CC(=O)N(Cc2ccccc2F)C2Cc3ccccc3C2)CC1", "note": "(stereo not shown) [Compound 135, 2-(4,5-Dimethyl-6-o-tolyl-3,6-dihydro-2H-pyridin-1-yl)-N-(2-fluoro-benzyl)-N-indan-2-yl-acetamide]", "Ki": 193}
{"smiles": "Cc1ccccc1C1c2ccsc2CCN1CC(=O)N(Cc1ccccc1F)C1Cc2ccccc2C1", "note": "(stereo not shown) [Compound 136, N-(2-Fluoro-benzyl)-N-indan-2-yl-2-(4-o-tolyl-6,7-dihydro-4H-thieno[3,2-c]pyridin-5-yl)-acetamide]", "Ki": 39.9}
